Experimental data reported in patent publication US20150182667A1, “Composition with Biofilm Dispersal Agents” (Vanderbilt University, priority 2012, published 2015).
Like-named read-outs stand apart in the source and are kept apart here.

Columns and labels:
[1] = tested on: planktonic S. aureus clinical strains (UAMS-1, 103-700); assay: MIC by CLSI broth microdilution, planktonic bacteria; assay type: cell-based, Staphylococcus aureus; settings: for MIC: Staphylococcus aureus, 18 h
Method: Overnight cultures of bacterial strains were diluted to a final concentration of 5×10^5 CFU/ml in MHB-II. The resulting bacterial suspension was aliquoted (100 μL) into polystyrene round-bottom 96-well plates containing 100 μL of a 2× concentration of a previously serially diluted (1:2) antibiotic. Each antimicrobial tested was serially diluted 10 times. Following the addition of bacteria, the microtiter plate was covered and was incubated under stationary conditions at 37° C. in the presence of 1× antibiotics. […] MICs of antibiotics were determined in triplicate according to the Clinical and Laboratory Standards Institute (CLSI) broth microdilution as described by the performance standards for antimicrobial susceptibility testing (M100-S22, January 2012).

[2] = tested on: biofilm derived S. aureus clinical strains (UAMS-1, 103-700); assay: Biofilm susceptibility, Calgary Biofilm device (MBEC plates): MBIC and viable CFU; assay type: cell-based, Staphylococcus aureus; settings: for Biofilm (MBIC) 103-700: S. aureus 103-700 48 h biofilm; for Biofilm (MBIC) 103-700 / Biofilm (MBIC) UAMS-1: 24 h challenge, * = with 5 mM D-AA; for Biofilm (MBIC) UAMS-1: S. aureus UAMS-1 48 h biofilm; for % Decrease + SD in CFU, 8 μg/mL / % Decrease + SD in CFU, 16 μg/mL / % Decrease + SD in CFU, 32 μg/mL / % Decrease + SD in CFU, 64 μg/mL: S. aureus UAMS-1 biofilm; for % Decrease + SD in CFU, 8 μg/mL: antibiotic 8 μg/mL; for % Decrease + SD in CFU, 16 μg/mL: antibiotic 16 μg/mL; for % Decrease + SD in CFU, 32 μg/mL: antibiotic 32 μg/mL; for % Decrease + SD in CFU, 64 μg/mL: antibiotic 64 μg/mL, vs non-treated biofilms; for effect of the antimicrobial against biofilms when combined with the D-AA mixture: S. aureus biofilms, both strains, bacterial CFUs within biofilms
Method: Biofilm susceptibility to antimicrobial agents in the presence and absence of D-AA was determined using the Calgary Biofilm device. Briefly, biofilms from overnight cultures were established as above on individual pegs of the minimum biofilm eradication concentration (MBEC) plates (Innovotech, Canada) with agitation for 48 h at 37° C. Following incubation, the lid with pegs was removed from the incubation plate, washed by re-suspending pegs into plate with wells containing 200 μl of 1×PBS, then placed into a 96-well challenge plate containing pre-diluted antibiotics with or without an […] for an additional 24 h at 37° C. Following challenge plates were washed, and the attached viable cells on PEGs within the biofilm were determined by plating serial dilutions onto blood agar plates (Remel). Corresponding minimal biofilm inhibitory concentration (MBIC) was also determined by measuring the optical density in individual wells of the challenge plate at 600 nm. The lowest concentration of antibiotic for which an optical density of <0.100 was recorded as the MBIC. For each antibiotic, the MBIC was determined in the presence or absence of a mixture of D-AA (D-Phenylalanine, D-Methionine, and D-Tryptophan) at an equimolar concentration of 5 mM. Three independent experiments were performed for each of these assays, with a minimum of 3 replicates.

[3] = tested on: S. aureus clinical isolate biofilms; assay: Biofilm dispersal and prevention, crystal violet 96-well assay (Example 1); assay type: cell-based, Staphylococcus aureus; settings: 5 mM; for biofilm dispersal against panel of clinical isolates (biofilm biomass OD570): S. aureus clinical isolates, FIGS. 3A, 3C; for biofilm dispersal in pre-screening of eight D-AAs: pre-formed S. aureus biofilms, FIG. 1
Method: (§1) Biofilm formation was performed under static conditions in polystyrene 96-well plates (Corning, Inc., Corning, N.Y.). Briefly, overnight bacterial cultures were diluted to an OD600 of 0.1 in CA-MHB and 10 μL was added to individual wells filled with 190 μl of media and incubated at 37° C. for 48 h without shaking for biofilm growth. Following incubation, culture media was removed and 200 μL media containing individual D-AA at concentrations of 5 mM-1 nM was added. Plates were incubated for an additional 24 h at 37° C. After treatment, plates were gently washed with 1× phosphate buffered saline (PBS; pH 7.4) to remove non-adherent bacteria. Biofilms (i.e. attached cells) were then stained with 0.1% (w/v) crystal violet for 10 min, washed, followed by solubilization of crystal violet with 33% (v/v) acetic acid for 10 min. Biofilm biomass was determined by measuring the absorbance at 570 nm using a microtiter plate reader. For assays measuring the ability of D-AA to block biofilm formation, cells were grown under biofilm conditions as above in the presence of media containing D-AA. Three independent experiments with a minimum of 4 replicates were performed for each experimental assay. Representative images of the plates of CV stained biofilms following treatment with D-AA, prior to solubilization, were taken using a digital camera.

[4] = Release of D-AAs from PUR scaffolds in PBS (HPLC); assay type: physicochemical
Method: Also, kinetic release assays were performed on the PUR scaffolds by incorporating 10 wt % of a 1:1:1 mixture of D-Tr:D-Pro:D-Met incubated in PBS for up to 8 weeks. The medium was be sampled twice weekly and analyzed for D-AAs by HPLC.
PUR scaffolds incorporating 10 wt % of a 1:1:1 mixture of D-Met:D-Pro:D-Trp were incubated in PBS at 37° C. under static conditions for up to 8 weeks. This mixture was evaluated in vitro, in vivo and in the release kinetics tests to account for potential interactions between D-AAs during release. The medium was sampled on days 1, 2, 4, 7, 10, 14, 21, and 28 and analyzed for D-AAs by HPLC using a system equipped with a Waters 1525 binary pump and a 2487 Dual-Absorbance Detector at 200 nm. Samples of released D-AAs were eluted through an Atlantis HILIC Silica column (5 μm particle size, 4.6 mm diameter×250 mm length) using an isocratic mobile phase flowing at 1 mL/min. The mobile phase contained 2.5 mM potassium dihydrogen phosphate with pH=2.85 (A) and Acetonitrile (B) at a ratio of A25:B75. The column oven temperature was maintained at 30° C. Sample concentration was determined in reference to an external standard curve using the Waters Breeze system. Standard curves were prepared in the following concentration ranges: (1) 7.8 μg/mL to 1 mg/mL for D-Met and D-Pro and (2) […] to 100 μg/mL for D-Trp.

[5] = tested on: S. aureus clinical isolates biofilms; assay: Biofilm dispersal and prevention, crystal violet assay (Example 3); assay type: cell-based; settings: for dispersal of established biofilms (biofilm biomass): panel of clinical isolates of methicillin-resistant S. aureus (n=5), 5 mM, 24 h, FIGS. 8A, 8C; for biofilm dispersal in pre-screening of eight individual D-AAs: pre-formed biofilms of four clinical isolates, 0.001-50 mM, FIG. 7
Method: Like in Example 1, biofilm formation was assessed under static conditions using polystyrene 96-well plates (Corning, Inc.). Overnight bacterial cultures were diluted to an OD600 of 0.1 in TSB (˜10^7 CFU/mL), and 20 μL were added to individual wells filled with 180 μL of media and incubated at 37° C. for 48 h. To assess the biofilm dispersal activity of D-AAs, the culture medium from biofilms was removed after 48 h and 200 μL fresh medium containing either an individual D-AA or an equimolar mixture of D-AAs (1:1:1: D-Met:D-Pro:D-Trp) were added at the indicated concentrations. After treatment with D-AA(s) for 24 h, plates were gently washed with 1× phosphate buffered saline (PBS) to remove unattached cells, stained with 0.1% (w/v) crystal violet (Sigma Aldrich) for 10 min, rinsed with PBS, and then solubilized with 80% (v/v) ethanol. Biofilm biomass was determined by measuring the absorbance of solubilized stain at 570 nm using a microtiter plate reader. For assays measuring the ability of D-AA to block biofilm formation, cells were grown under biofilm conditions as above in the presence of media containing D-AAs. Representative images of the plates of CV-stained biofilms following treatment with D-AA prior to solubilization were taken using a digital camera. All assays were repeated in triplicate with a minimum of four technical replicates.

[6] = tested on: P. aeruginosa clinical isolate biofilms; assay: Biofilm dispersal and prevention, crystal violet 96-well assay (Example 1); assay type: cell-based, Pseudomonas aeruginosa; settings: 5 mM; for biofilm dispersal against panel of clinical isolates (biofilm biomass OD570): P. aeruginosa clinical isolates, FIGS. 3A, 3C; for biofilm dispersal in pre-screening of eight D-AAs: pre-formed P. aeruginosa biofilms, FIG. 1
Method: as §1

[7] = S. aureus 103-700, agents marked * in combination with equimolar 5 mM D-AA, read-out: Planktonic (MIC) 103-700
[8] = S. aureus UAMS-1, agents marked * in combination with equimolar 5 mM D-Phenylalanine, D-Tryptophan, D-Methionine, read-out: Planktonic (MIC) UAMS-1
[9] = S. aureus 103-700, agents marked * in combination with equimolar 5 mM D-AA

Row | Structure (SMILES) | MIC [1, 7] | MIC [1, 8] | Biofilm (MBIC) 103-700 [2] | Biofilm (MBIC) UAMS-1 [2] | % Decrease + SD in CFU, 8 μg/mL [2] | % Decrease + SD in CFU, 16 μg/mL [2] | % Decrease + SD in CFU, 32 μg/mL [2] | % Decrease + SD in CFU, 64 μg/mL [2] | effect of the antimicrobial against biofilms when combined with the D-AA mixture [2] | biofilm dispersal against panel of clinical isolates (biofilm biomass OD570) [3] | biofilm dispersal in pre-screening of eight D-AAs [3] | cumulative release by day 28 ([4]; PUR scaffold with 10 wt % D-AA mixture, PBS 37° C.) | burst release ([4]; day 1, PUR scaffold with 10 wt % 1:1:1 D-Met:D-Pro:D-Trp, PBS 37° C.) | b parameter of Weibull model ([4]; fit of D-AA release data) | dispersal of established biofilms (biofilm biomass) [5] | biofilm dispersal in pre-screening of eight individual D-AAs [5] | biofilm dispersal against panel of clinical isolates (biofilm biomass OD570) [6] | biofilm dispersal in pre-screening of eight D-AAs [6] | Planktonic (MIC) 103-700 [1, 9] | Planktonic (MIC) UAMS-1 ([1]; S. aureus UAMS-1, agents marked * in combination with equimolar 5 mM D-Phenylalanine, D-Tryptophan, D-Methionine)
1 | CO[C@H]1/C=C/O[C@@]2(C)Oc3c(C)c(O)c4c(O)c(c(/C=N/N5CCN(C)CC5)c(O)c4c3C2=O)NC(=O)/C(C)=C\C=C\[C@H](C)[C@H](O)[C@@H](C)[C@@H](O)[C@@H](C)[C@H](OC(C)=O)[C@@H]1C [RIF, Rifampin] | 0.5 µg/mL | 0.5 µg/mL | 32 µg/mL | 32 µg/mL | 16.87 ± 2.9% | 34.31 ± 5.4% | 70.70 ± 4.3% | 67.36 ± 1.2% | enhanced the effect | – | – | – | – | – | – | – | – | – | – | –
2 | O=C(O)[C@H]1CCCN1 [D-Pro, D-proline] | – | – | – | – | – | – | – | – | – | capable of significantly dispersing biofilm formation | relatively more effective at dispersing biofilms | 85% | 45% | 0.35 | effective at dispersing established biofilms | effective at dispersing biofilms | capable of significantly dispersing biofilm formation | relatively more effective at dispersing biofilms | – | –
3 | N[C@H](Cc1ccccc1)C(=O)O [D-Phe, D-phenylalanine] | – | – | – | – | – | – | – | – | – | capable of significantly dispersing biofilm formation | relatively more effective at dispersing biofilms | – | – | – | effective at dispersing established biofilms | effective at dispersing biofilms | capable of significantly dispersing biofilm formation | relatively more effective at dispersing biofilms | – | –
4 | Cc1onc(-c2ccccc2)c1C(=O)N[C@@H]1C(=O)N2[C@@H]1SC(C)(C)[C@@H]2C(=O)O [OXA, Oxacillin] | 8 µg/mL | 1 µg/mL | >64 µg/mL | >64 µg/mL | – | – | – | – | – | – | – | – | – | – | – | – | – | – | 8 µg/mL | –
5 | Cc1nnc(SCC2=C(C(=O)O)N3C(=O)[C@@H](NC(=O)Cn4cnnn4)[C@H]3SC2)s1 [CFZ, Cefazolin] | 16 µg/mL | 0.5 µg/mL | >128 µg/mL | >128 µg/mL | – | – | – | – | – | – | – | – | – | – | – | – | – | – | – | –
6 | CCC[C@@H]1C[C@@H](C(=O)N[C@@H]([C@H]2O[C@H](SC)[C@H](O)[C@@H](O)[C@H]2O)[C@H](C)Cl)N(C)C1 [CLI, Clindamycin] | 0.5 µg/mL | 0.5 µg/mL | >64 µg/mL | 64 µg/mL | 1.8 ± 1.0% | 9.3 ± 1.8% | 32.86 ± 4.3% | 66.0 ± 3.4% | – | – | – | – | – | – | – | – | – | – | – | –
7 | CN[C@H](CC(C)C)C(=O)N[C@H]1C(=O)N[C@@H](CC(N)=O)C(=O)N[C@H]2C(=O)N[C@H]3C(=O)N[C@H](C(=O)N[C@H](C(=O)O)c4cc(O)cc(O)c4-c4cc3ccc4O)[C@H](O)c3ccc(c(Cl)c3)Oc3cc2cc(c3O[C@@H]2O[C@H](CO)[C@@H](O)[C@H](O)[C@H]2O[C@H]2C[C@](C)(N)[C@H](O)[C@H](C)O2)Oc2ccc(cc2Cl)[C@H]1O [VAN, Vancomycin] | – | – | >64 µg/mL | >64 µg/mL | 1.5 ± 5.7% | 15.93 ± 6.2% | 31.90 ± 7.1% | 65.97 ± 5.3% | enhanced the effect | – | – | – | – | – | – | – | – | – | 1 µg/mL | 0.5 µg/mL
